Here are results for 14 compounds from patent EP4752152A1, “STEROID COMPOUND, AND PREPARATION METHOD THEREFOR AND USE THEREOF” (Cholesgen (Shanghai) Co.Ltd., priority 2023, dated 2025).

SMILES strings stand for the structures. Converted amounts (≈) assume the structure as drawn.

The nature of data set [1]: Metabolic stability experiment of mouse liver microsomes. It counts as in vitro ADME. The procedure: PB solution (100 mM), MgCl2 solution (300 mM), NADPH solution (2.04 mM), and mouse liver microsome (SHQY catalog number: M1000, batch number: 2110330) solution (1.00 mg/mL) were prepared respectively. […] Then, 100 µL of mouse liver microsome solution was added to a 96-well sample plate. For the 0 min sample, acetonitrile solution containing the internal standard was first added; then, 2 µL of 100 µM working solution was added; followed by the addition of 98 µL of pre-warmed 2.04 mM NADPH at 37°C. For the 5 min, 15 min, 30 min, 45 min, and 60 min samples, 2 µL of 100 µM working solution was first added; followed by the addition of 98 µL of pre-warmed 2.04 mM NADPH at 37°C to initiate the reaction; upon reaching the respective time points, a solution of acetonitrile containing the internal standard was added to terminate the reaction. For the NCF60 sample, 2 µL of 100 µM working solution was first added; followed by the addition of 98 µL of pre-warmed PB at 37°C to initiate the reaction; upon reaching the respective time points, a solution of acetonitrile containing the internal standard was added to terminate the reaction. During the experiment, all samples were incubated in a 37°C water bath. All samples were shaken on an oscillator at 800 rpm for 10 min, then centrifuged at 3200 g for 20 min. The supernatant was aspirated, diluted with deionized water at the corresponding ratio, and analyzed by LC-MS/MS. The remaining percentage of the compound at each time point was obtained by dividing the peak area ratio of the compound at 5, 15, 30, 45, and 60 min by the peak area ratio at 0 min. The half-life (T1/2) of the compound was then calculated using Excel. Table 2: Mouse liver microsome stability results of compounds from some examples
Background: Liver microsomes are vesicles of endoplasmic reticulum, rich in cytochrome P450 enzymes.

The test system of the next data set is SREBP pathway. The data set is described as follows: SREBP luciferase reporter gene system (SRE-luciferase assay). As to conditions: Homo sapiens, Huh-7, 16 h, Huh-7/SRE-luc cells, sterol-deficient medium, 0.01-10 µM. The format is cell-based, human. An outline of the steps: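 Huh-7 cells stably carrying LDLR promoter-luciferase plus GFP were treated 16 h in sterol-deficient medium (5% lipoprotein-deficient serum, 2 µM lovastatin, 10 µM mevalonic acid) at 0.01–10 µM. Luciferase/GFP ratio measured as pathway activity; inhibition versus DMSO fitted to a four-parameter model for IC50.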
(In general: A reporter such as luciferase makes a cellular process visible.)

Data set [2] is described as follows: Solubility in fasted-state simulated intestinal fluid (FaSSIF). The format is physicochemical. The note with it: FaSSIF, pH 6.5, fassif, kinetic from dmso stock, FaSSIF pH 6.5, 300 µM sample solution, room temperature. An outline of the steps:
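Compound from 10.0 mM DMSO stock added to FaSSIF (phosphate/NaCl buffer, pH 6.5) at 300 µM nominal, shaken 1 h at room temperature, 1000 rpm. After centrifugation, supernatant concentration quantified by LC-MS/MS.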

For data set [3], the system named is Fatty Acid Synthase (FASN) gene. The data set is described as follows: Inhibition of FASN gene expression (qPCR) in Huh-7 cells. The format is cell-based, human. The note with it: Homo sapiens, Huh-7, 16 h, Huh-7 cells, starvation medium, 16 hours, qPCR; class symbols; read-out: FASN IC50. The gist of the method: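 Huh-7 cells switched to starvation DMEM (5% LPDS, 2 µM lovastatin, 10 µM mevalonate) and treated 16 h with compound, top 3000 nM, 3-fold dilutions, 5 concentrations. FASN mRNA by RT-qPCR; inhibition relative to DMSO, IC50 from four-parameter fit.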
(In general: Real-time PCR tracks product formation cycle by cycle.)

A word on the half-life: it is the time in which the quantity being followed falls by half. Low readings indicate fast loss, high ones slow loss. For orientation: IC50 means the concentration needed to halve the response being measured. Broadly, the solubility is the concentration that dissolves in the medium under given conditions. In data set [1], `COc1c(F)cccc1C(O)CCC[C@@H](C)[C@H]1CC[C@H]2[C@H]3[C@H](CC[C@]12C)[C@@]1(C)CC[C@H](O)[C@H](O)[C@@H]1CC3(F)F` (stereo partly drawn) [Compound 46, (1R,3aS,3bS,5aR,6R,7S,9aR,9bS,11aR)-4,4-difluoro-1-[(2R)-6-(2-methoxy-3-fluorophenyl)-6-hydroxyhexan-2-yl]-9a,11a-dimethylhexadecahydro-1H-cyclopenta[1,2-a]phenanthrene-6,7-diol] came in with a half-life at 1 µM of 2.6 h. Moreover, the IC50 in the data set with SREBP pathway was determined as 0.07 µM. In data set [2], this compound had a solubility at 1 h of 277 µM (≈ 153 µg/mL).
The compound `COc1ccc(C(O)CCC[C@@H](C)[C@H]2CC[C@H]3[C@H]4[C@H](CC[C@]23C)[C@@]2(C)CC[C@H](O)[C@H](O)[C@@H]2CC4(F)F)cc1` (stereo partly drawn) [Compound 50, (1R,3aS,3bS,5aR,6R,7S,9aR,9bS,11aR)-4,4-difluoro-1-[(2R)-6-(4-methoxyphenyl)-6-hydroxyhexan-2-yl]-9a,11a-dimethylhexadecahydro-1H-cyclopenta[1,2-a]phenanthrene-6,7-diol] yielded a half-life at 1 µM in data set [1] of 1.8 h. In addition, the IC50 in the data set on SREBP pathway amounted to 0.188 µM. The compound also had a solubility at 1 h in data set [2] of 248 µM (≈ 132 µg/mL).
Consider `C[C@H](CCCC(O)c1cccc(F)c1)[C@H]1CC[C@H]2[C@H]3[C@H](CC[C@]12C)[C@@]1(C)CC[C@H](O)[C@H](O)[C@@H]1CC3(F)F` (stereo partly drawn) [Compound 44, (1R,3aS,3bS,5aR,6R,7S,9aR,9bS,11aR)-4,4-difluoro-1-[(2R)-6-(3-fluorophenyl)-6-hydroxyhexan-2-yl]-9a,11a-dimethylhexadecahydro-1H-cyclopenta[1,2-a]phenanthrene-6,7-diol], for which, in data set [1], the half-life at 1 µM is greater than 3.1 h. Besides, the half-maximal inhibitory concentration (IC50) in the data set with SREBP pathway came to 0.152 µM. Also, the solubility at 1 h in data set [2] was 225 µM (≈ 118 µg/mL).
In turn, `C[C@H](CCCC(O)c1cccc2c1OC(F)(F)O2)[C@H]1CC[C@H]2[C@H]3[C@H](CC[C@]12C)[C@@]1(C)CC[C@H](O)[C@H](O)[C@@H]1CC3(F)F` (stereo partly drawn) [Compound 77, (1R,3aS,3bS,5aR,6R,7S,9aR,9bS,11aR)-1-[(2R)-6-(2,2-difluorobenzo[d][1,3]dioxol-4-yl)-6-hydroxyhexan-2-yl]-4,4-difluoro-9a,11a-dimethylhexadecahydro-1H-cyclopenta[1,2-a]phenanthrene-6,7-diol] registered a half-life at 1 µM in data set [1] greater than 3.08 h. Also, the IC50 is less than 200 nM in data set [3] and 0.17 µM in the data set with SREBP pathway.
Compound `C[C@H](CCCC(O)c1c(F)cccc1F)[C@H]1CC[C@H]2[C@H]3[C@H](CC[C@]12C)[C@@]1(C)CC[C@H](O)CC1CC3(F)F` (stereo in doubt) [Compound 87, (1R,3aS,3bR,7S,9aS,9bS,11aR)-1-[(2R)-6-(2,6-difluorophenyl)-6-hydroxyhexan-2-yl]-4,4-difluoro-9a,11a-dimethylhexadecahydro-1H-cyclopenta[1,2-a]phenanthren-7-ol] yielded a half-life at 1 µM in data set [1] of 2.26 h. Also, the IC50 was less than 200 nM in data set [3] and 0.055 µM with SREBP pathway.
Turning to `COc1ccccc1C(O)CCC[C@@H](C)[C@H]1CC[C@H]2C3=C(F)C[C@H]4[C@@H](O)[C@@H](O)CC[C@]4(C)[C@H]3CC[C@]12C` (stereo partly drawn) [Compound 38, (1R,3aR,5aR,6R,7S,9aR,9bR,11aR)-4-fluoro-1-[(2R)-6-hydroxy-6-(2-methoxyphenyl)hexan-2-yl]-9a,11a-dimethyl-2,3,3a,5,5a,6,7,8,9,9a,9b,10,11,11a-tetradecahydro-1H-cyclopenta[1,2-a]phenanthrene-6,7-diol], the half-life at 1 µM in data set [1] is 0.203 h. In the data set with SREBP pathway, the IC50 came to 0.11 µM. The compound also came in with a solubility at 1 h in data set [2] of 184 µM (≈ 94.8 µg/mL).
In the case of `COc1cccc(C(O)CCC[C@@H](C)[C@H]2CC[C@H]3C4=C(F)C[C@H]5[C@@H](O)[C@@H](O)CC[C@]5(C)[C@H]4CC[C@]23C)c1F` (stereo partly drawn) [Compound 64, (1R,3aR,5aR,6R,7S,9aR,9bR,11aR)-4-fluoro-1-[(2R)-6-(2-fluoro-3-methoxyphenyl)-6-hydroxyhexan-2-yl]-9a,11a-dimethyl-2,3,3a,5,5a,6,7,8,9,9a,9b,10,11,11a-tetradecahydro-1H-cyclopenta[1,2-a]phenanthrene-6,7-diol], the half-life at 1 µM in data set [1] was determined as 1.16 h. For the same compound, the IC50 in data set [3] is less than 200 nM; with SREBP pathway it was 0.318 µM.
The compound `COc1cccc(C(O)CCC[C@@H](C)[C@H]2CC[C@H]3[C@H]4[C@H](CC[C@]23C)[C@@]2(C)CC[C@H](O)[C@H](O)[C@@H]2CC4(F)F)c1` (stereo partly drawn) [Compound 39, (1R,3aS,3bS,5aR,6R,7S,9aR,9bS,11aR)-4,4-difluoro-1-[(2R)-6-hydroxy-6-(3-methoxyphenyl)hexan-2-yl]-9a,11a-dimethylhexadecahydro-1H-cyclopenta[1,2-a]phenanthrene-6,7-diol] displayed a half-life at 1 µM in data set [1] of 1.95 h. In addition, in the data set with SREBP pathway, the IC50 was 0.19 µM. The same compound displayed a solubility at 1 h in data set [2] of 177 µM (≈ 94.6 µg/mL).
On to `C[C@H](CCCC(O)c1cccc(OC(F)(F)F)c1)[C@H]1CC[C@H]2[C@H]3[C@H](CC[C@]12C)[C@@]1(C)CC[C@H](O)[C@H](O)[C@@H]1CC3(F)F` (stereo partly drawn) [Compound 84, (1R,3aS,3bS,5aR,6R,7S,9aR,9bS,11aR)-4,4-difluoro-1-[(2R)-6-hydroxy-6-{3-[(trifluoromethyl)oxy]phenyl}hexan-2-yl]-9a,11a-dimethylhexadecahydro-1H-cyclopenta[1,2-a]phenanthrene-6,7-diol], for which the half-life at 1 µM in data set [1] was greater than 3.08 h. Besides, the IC50 in data set [3] is 200 to 500 nM; with SREBP pathway, 0.204 µM.
On the same counts, the results for `COc1cccc([C@H](O)CCC[C@@H](C)[C@H]2CC[C@H]3[C@H]4[C@H](CC[C@]23C)[C@@]2(C)CC[C@H](O)[C@H](O)[C@@H]2CC4(F)F)c1OC` [Compound 71, (1R,3aS,3bS,5aR,6R,7S,9aR,9bS,11aR)-1-[(2R,6R)-6-(2,3-dimethoxyphenyl)-6-hydroxyhexan-2-yl]-4,4-difluoro-9a,11a-dimethylhexadecahydro-1H-cyclopenta[1,2-a]phenanthrene-6,7-diol] are 1.05 h, less than 200 nM and 0.083 µM.
As for `COc1ccccc1C(O)CCC[C@@H](C)[C@H]1CC[C@H]2[C@H]3[C@H](CC[C@]12C)[C@@]1(C)CC[C@H](O)CC1CC3(F)F` (stereo partly drawn) [Compound 72, (1R,3aS,3bR,7S,9aS,9bS,11aR)-4,4-difluoro-1-[(2R)-6-hydroxy-6-(2-methoxyphenyl)hexan-2-yl]-9a,11a-dimethylhexadecahydro-1H-cyclopenta[1,2-a]phenanthren-7-ol], the half-life at 1 µM in data set [1] was found to be 1.38 h. Moreover, the IC50 in data set [3] is less than 200 nM; with SREBP pathway, 0.14 µM.
`C[C@H](CCCC(O)c1ccccc1OC(F)(F)F)[C@H]1CC[C@H]2[C@H]3[C@H](CC[C@]12C)[C@@]1(C)CC[C@H](O)[C@H](O)[C@@H]1CC3(F)F` (stereo partly drawn) [Compound 1, (1R,3aS,3bS,5aR,6R,7S,9aR,9bS,11aR)-4,4-difluoro-1-[(2R)-6-hydroxy-6-{2-[(trifluoromethyl)oxy]phenyl}hexan-2-yl]-9a,11a-dimethylhexadecahydro-1H-cyclopenta[1,2-a]phenanthrene-6,7-diol] showed a half-life at 1 µM in data set [1] of 2.78 h. The IC50 in the data set on SREBP pathway is 0.33 µM. The same compound had a solubility at 1 h in data set [2] of 140 µM (≈ 82.4 µg/mL).
For `C[C@H](CCCC(O)c1ccccc1OC(F)(F)F)[C@H]1CC[C@H]2[C@H]3[C@H](CC[C@]12C)[C@@]1(C)CC[C@H](O)C(=O)[C@@H]1CC3(F)F` (stereo partly drawn) [Compound 97, (1R,3aS,3bS,5aR,7S,9aR,9bS,11aR)-4,4-difluoro-7-hydroxy-1-[(2R)-6-hydroxy-6-{2-[(trifluoromethyl)oxy]phenyl}hexan-2-yl]-9a,11a-dimethylhexadecahydro-1H-cyclopenta[1,2-a]phenanthren-6-one], the half-life at 1 µM in data set [1] was 1.78 h. In addition, the IC50 in data set [3] is less than 200 nM; in the data set on SREBP pathway, 0.0741 µM.
On the same counts, the results for `COc1c(F)cccc1C(O)CCC[C@@H](C)[C@H]1CC[C@H]2[C@@H]3CC[C@H]4[C@@H](O)[C@@H](O)CC[C@]4(C)[C@H]3CC[C@]12C` (stereo partly drawn) [Compound 7, 24-[(3-Fluoro-2-methoxyphenyl)(hydroxy)methyl]-5α-cholane-3β,4β-diol] are 0.624 h, 200 to 500 nM and 0.07 µM.
